Patent publication US20130302470A1, “L-amino-acid-containing feed additive in the form of fermentation-broth-based granules, and processes for its preparation” (EVONIK INDUSTRIES AG, priority 2012, published 2013)

Columns and labels:
rainbow trout = details: aquafeed with different lysine concentrations, FIG. 8; cited from earlier work
[1] = Hydrothermal stability, Experiment 9.2: pelleted aquafeed (lysine recovery); format: physicochemical; details: pelleting process
Source text: (§1) So as to be able to assess what is known as the hydrothermal stability of the additives, and to compare them with each other, the production processes for producing pelleted and extruded aquafeed was reproduced on a small scale. In each case two feed blends which differ only in respect of the L-lysine additive were employed, mixture A being supplemented with 0.50% granular feed additive according to the present invention and mixture B with 0.32% Lys×HCl, which corresponded in each case to identical lysine base concentrations. The granular feed additive according to the invention contained 50.7% by weight of lysine in the form of lysine sulphate and 10% by weight of biomass.
The process parameters, such as, for example, residence time, temperature or water content, were set at values which are typically used in practice. During the experiments, samples of the feed blend were taken after the respective individual process steps and subjected to extensive amino acid analysis. The hydrothermal stabilities of the test additives upon processing in the processes in question can be assessed relative to one another via the recovery rates.
The feed blends corresponded to representative state-of-the-art formulas. […]
In the amino acid determination, the supplemented amino acid lysine was determined. […] Thereafter, the amino acids were subjected to photometric quantitation at 570 nm. […]

[2] = Hydrothermal stability, Experiment 9.1: extruded aquafeed (lysine recovery); format: physicochemical
Source text: as §1
The process parameters, such as, for example, residence time, temperature or water content, were set at values which are typically used in practice. […] The hydrothermal stabilities of the test additives upon processing in the processes in question can be assessed relative to one another via the recovery rates. […]
The hydrothermal stability of the granules according to the present invention was compared with the hydrothermal stability of Lys×HCl. The hydrothermal stability of the additives for extruded shrimp/prawn feed was examined and assessed during the entire respective process. […]
In the amino acid determination, the supplemented amino acid lysine was determined. […]

Cl.NCCCC[C@H](N)C(=O)O [lysine HCl, L-lysine monohydrochloride]
Effect of the nature of the lysine source on the weight increase of trout (rainbow trout): no effect on the weight increase | Lysine loss upon pelleting [1]: approximately 3.3% | Lysine lost during the processing to give shrimp/prawn feed ([2]; extrusion process): 8.6% | Stability of the lysine in the shrimp/prawn feed production process (comparison) ([2]; extrusion, lysine sulphate granules versus lysine HCl): markedly more unstable
